Tests used:
[1] = target: T1, D-dopachrome tautomerase (D-DT) (Homo sapiens, UniProt P30046); assay: Drug resin affinity chromatography (DRAC), D-DT; assay type: binding; details: SH-SY5Y-tau-P301S lysates
T1 construct: Lysates derived from SH-SY5Y-tau-P301S control; endogenous in cells; host or cells: SH-SY5Y-tau-P301S control and MIF-ko cell lysates
Method: For drug resin affinity chromatography (DRAC), supernatant of cell lysates or brain extracts were supplemented with 1 mM of ribonucleoside triphosphates (ATP, GTP, CTP, UTP; NEB), 10 mM creatine phosphate (Sigma) and 10 μL/mL of a 5 mg/mL stock solution of creatine kinase (Sigma). The samples were then loaded onto 20 μL of compound-coupled resin that were equilibrated with PBB-buffer (plus supplements). After one hour of incubation at 26°C, the beads were washed with PBB (100x bed volume). Bound proteins were then eluted either with 200 μM PAV-645 (pig brain) or 100 μM free compound (human brain samples; cell lysates) in the same buffer used as competitor solution or for stripping 1% SDS or 8M urea (cell lysates) for 1h. All elutions were kept frozen until further analysis.
Figure S3. PAV-17 4 reduces ta u phosphorylation al s o in the abs enc e of HSV-1-infection in a MIF and dose dependent manner. Rel a ted to Figure 3
(A) SH-SY5Y-tau-P301S cel ls could efficiently been infected with HSV-1. The cel ls we re infected with increasing MOIs (0 .0 3 to 3. 0 ) of HSV-1 an d then lysed af t er 6h , 9h , 16 h or 24 h. […]
(E) Expression of MIF wa s no t mo du late d up on infection with HSV-1. […] The di ag ram di splays the quantification of MIF normalized to GAPDH derived from three in de pe nd en t exper iments (n =3). […]

[2] = test system: tau phosphorylation and aggregation; assay: Treatment of tgTau58/2 mice, tau phosphorylation and sarkosyl-insoluble tau in brain; assay type: in vivo; details: tau58/2 mice
Source text: TgTau58/2 mice[44] that express the human 0N4R tau isoform with the P301Smutation under control of the mouse Thy1.2 promoter were a kind gift from Novartis (Boston, USA). Experimental animals were two months old, male, and heterozygous for the transgene. Wildtype littermates on C57BL/6J background served as control. The mice were maintained in pathogen-free conditions in the Animal Facility at the University of Düsseldorf, Germany, fed ad libitum with standard laboratory chow and water in ventilated cages under a 12h light/dark cycle. All experiments were in conformity with the Animal Protection Law approved by local authorities (LANUV NRW, Recklinghausen, Germany).
TgTau58/2 mice[44] were a kind gift from Novartis (Boston, USA). Two months-old males, heterozygous for the tau-P301S transgene (n = 12 per group), were either treated with 10% DMSO or 5 mg/kg body weight compound PAV-617 for four weeks administering 100 μL volumes intraperitoneally three times a week, after which animals were perfused with PBS and terminated. The brains were extracted cut into two-halves and flash frozen in liquid N2. One brain halve was homogenized in cold extraction buffer (10 mM Tris pH7.4, 1mM EGTA, 0.8M NaCl, 10% sucrose, 1x Protease inhibitor cocktail, 1x phosphatase inhibitor cocktail 2) to 10%. For screening 1% NP40, 0.1mg/mL DNAseI and 5 mM MgSO4 were added to the homogenates and after 30 min incubation on ice the protein concentration was determined using the DC Protein Assay Kit (Bio-Rad). Equal amounts of protein were then either directly used for detection of tau in the whole homogenate by immunoblot or sarkosyl insoluble tau was precipitated following a protocol of.[93] 750 μg lysate were centrifuged at 6,000g for 20 min at 4°C. Then the supernatant was carefully taken and sarkosyl was added to 1% end concentration. After an incubation for 1h at RT the samples were spun down at 100,000g for 1h at 4°C. The supernatants were removed and the pellets carefully washed with 200 μL extraction buffer without sucrose. […]

Q: Which results are given for `[I-].c1cc2nc3ccc(N4CCCC4)cc3[s+]c2cc1N1CCCC1` [PAV-617, 3,7-Di(pyrrolidine-1-yl)phenothiazine-5-ium iodide]?
A: binding of / interaction with D-DT [1]: no bi nd ing of D-DT; phosphorylated tau (AT8) in brain homogenates ([2]; 5 mg/kg): reduced; phosphorylated tau (PHF-1) in the sarkosyl-insoluble fraction ([2]; 5 mg/kg): Significantly less; HT7-normalized phosphorylated tau (PHF-1) in brain homogenates ([2]; 5 mg/kg i.p. three times a week for four weeks): reduced
